Experimental data as given in US20160095845A1, “COMPOSITION COMPRISING (S)-(-)-BENPROPERINE FOR PREVENTING OR TREATING CANCER” (KOREA RESEARCH INSTITUTE OF BIOSCIENCE AND BIOTECHNOLOGY, priority 2014, published 2016).

Legend:
[1] = test system: DLD-1 cells, PRL-3 over-expressed colorectal cancer cell line; assay: Transwell cell migration assay; assay type: cell-based, human; conditions: for inhibition at 0.5 µM: DLD-1, 0.5 μM (FIG. 3b); for inhibition at 0.5 µM / inhibition at 5 µM: compared to DMSO-treated control; for inhibition at 5 µM: DLD-1, 5 μM (FIG. 3a)
Experimental: (§1) To analyze inhibitory activity against the migration and invasion of (S)-(−)-benproperine cancer cells, a cell migration and invasion assay was caned out using DLD-1 cells (ATCC-CCL-221), a PRL-3 over-expressed colorectal cancer cell line, using a transwell as described below.
(§2) First, DLD-1 cells (ATCC-CCL-221) were allowed to grow to about 90% in a culturing plate containing an RPMI medium, then removed from the medium and washed with PBS. The washed cells were treated with trypsin-EDTA and cultured in a CO2 incubator at 37° C. for […] to detach the cells. Then an RPMI medium containing 10% FBS was added thereto, and the cells were collected in a Falcon tube and centrifuged to remove the medium. The thus-obtained cells were charged with an FBS-free RPMI medium and centrifuged to remove the medium, and these step were repeated twice. The thus-obtained cells were charged with an FBS-free RPMI medium and then suspended to measure the number of cells using a hemocytometer.
(§3) Thereafter, the transwell was placed on top of a 24-well plate and charged with cells of 8×10^4 cell/200 The transwell was charged with 500 μL of an FBS-free RPMI medium containing the (S)-(−)-benproperine, prepared in Example 1, through the gap, and cultured in a CO2 incubator at 37° C. for 12 hours to 16 hours. After culturing, the transwell was turned upside down on a hand towel to remove the medium, then each well of the 24-well plate was charged with 500 μL of crystal violet (5 mg/mL in 20% MeOH). The transwell was placed back on top of the 24-well plate and incubated in a CO2 incubator for 30 minutes. The stained transwell was washed with PBS and turned upside down on a hand towel to let the remaining solution infiltrate into the hand towel. A region where the cells had not moved was labeled as the top of a film by placing a cover slip on top of the film, and the cells that had not moved were wiped off with a cotton swab. A small amount of nail polish was applied to the edge of the cover slip, and a slide glass was placed on top to fix the cover slip. The thus-prepared sample was photographed using an inverted microscope (TE 300, Nikon, Japan) with a digital camera installed, and the number of migrated cells was calculated.
Subsequently, cell migration inhibition was calculated via Mathematical Formula 1 shown below.
(§4) According to the Mathematical Formula 1 above, “the number of migrated cells in sample-treated group” refers to a number of migrated cells measured after treating DLD-1 with (S)-(−)-benproperine (S-Benp) prepared in Example 1, (R)-(+)-benproperine (R-Benp) prepared in Comparative Example 1, or a mixed racemate having a 1:1 weight ratio of (S)-(−)-benproperine to (R)-(+)-benproperine, and “the number of migrated cells in control group” refers to a number of migrated cells measured after treating DLD-1 with 1% dimethyl sulfoxide (DMSO) alone, instead of benproperine.

[2] = test system: DLD-1 cells, PRL-3 over-expressed colorectal cancer cell line; assay: Transwell cell invasion assay; assay type: cell-based; conditions: Homo sapiens; for inhibition at 1 µM: DLD-1, 1 μM (FIG. 5b); for inhibition at 1 µM / inhibition at 5 µM: compared to DMSO-treated control; for inhibition at 2 µM: DLD-1, 2 μM (FIG. 5b); for inhibition at 5 µM: DLD-1, 5 μM (FIG. 5a)
Experimental: as §1, §2, §3, §4

[3] = test system: cancer cells (DLD-1, AsPc-1, B16-BL6); assay: Cytotoxicity assay (WST-1); assay type: cell-based; conditions: 5 μM, 48 hours
Experimental: (§5) To verify the cytotoxicity of (S)-(−)-benproperine, prepared in Example 1, DLD-1 cells (ATCC-CCL-221), a human colorectal cancer cell line, AsPc-1′ cells (ATCC-CRL-1682), a pancreatic cancer cell line, B16-BL6 cells (ATCC-CRL-6475), a melanoma cell line, and normal cells of MCF10A (ATCC-CRL-10317) were cultured in an RPM medium containing 10% fetal bovine serum (FBS) while maintaining a temperature at 37° C. and 5% CO2, and the cells were then detached from the medium using 0.05% trypsin-EDTA. Each well of a 96-well plate including the medium containing 10% FBS was inoculated with 410^3 cells, calculated with a hemocytometer, and the cells were cultured in an incubator containing 5% CO2 at 37° C.
(§6) After 24 hours, the medium of each well was replaced with a new medium containing a control group (0.1% DMSO) and 5 μM of benproperine, prepared in either of Example 1 or Comparative Example 1. The cells in the new media were then cultured in an incubator containing 5% CO2 at 37° C. for 48 hours. Each well was then charged with 10 μL of WST-1 (Roche), culturing was continued for 2 hours, and absorbance was measured at 450 nm by ELISA Reader (Bio-Rad).

normal cells of MCF10A = assay: Cytotoxicity assay (WST-1); assay type: cell-based; conditions: 5 μM, 48 hours
Experimental: as §5, §6

MCF10A cells = assay: Transwell cell migration assay, normal cells; assay type: cell-based; conditions: 10 μM (FIG. 4)
[4] = Acute toxicity experiment of oral administration on rats; conditions: SD, in vivo, 1000 mg/kg; rat, oral; read-out: minimum lethal oral dose (LD50)
Experimental: (§7) 6-week-old specific pathogen free SD type rats were divided into groups, where each group contains two rats. The (S)-(−)-benproperine, prepared in Example 1, was dissolved in water for injection, and orally administered to each rat once at a volume of 1000 mg/kg.

SD type rats = assay: as above; conditions: rat, in vivo, po, 1000 mg/kg
Experimental: as §7

CC(COc1ccccc1Cc1ccccc1)N1CCCCC1 (racemic) [racemate, 1-[1-(2-benzylphenoxy)propan-2-yl]piperidine, reference compound]
inhibition at 0.5 µM ([1]; Homo sapiens): 3%
inhibition at 2 µM ([1]; Homo sapiens, DLD-1, 2 μM (FIG. 3b)): 53%
inhibition at 5 µM ([1]; Homo sapiens): 71%
inhibition at 1 µM [2]: 21%
inhibition at 2 µM [2]: 36%
inhibition at 5 µM [2]: 73%

C[C@@H](COc1ccccc1Cc1ccccc1)N1CCCCC1 [(S)-(−)-benproperine]
cytotoxicity [3]: did not exhibit the cytotoxicity
cytotoxicity (normal cells of MCF10A): did not exhibit the cytotoxicity
inhibitory activity against cell migration relative to the racemate ([1]; DLD-1, 52% at 1 μM vs racemate 53% at 2 μM): twice as much inhibitory activity against the cell migration as the racemate
inhibition at 0.5 µM ([1]; Homo sapiens): 32%
inhibition at 1 µM ([1]; Homo sapiens, DLD-1, 1 μM (FIG. 3b)): 52%
inhibition at 5 µM ([1]; Homo sapiens): 89%
inhibition of migration of normal cells (MCF10A cells): did not inhibit the migration
inhibition at 1 µM [2]: 36%
inhibition at 2 µM [2]: 57%
inhibition at 5 µM [2]: 90%
highest tested oral dose (no deaths) [4]: 1000 mg/kg
animal death (SD type rats): none died
clinical symptoms (SD type rats): showed noteworthy clinical symptoms
toxicity in weight fluctuation, hematological and blood biochemical examinations, post-mortem reports (SD type rats): nor showed any toxicity
